Each block holds one molecule with its values, some of them ahead of it.
How the values were obtained:
[1] = biological target: T1, OdhAΔ97 (Corynebacterium glutamicum, UniProt Q8NRC3); assay: crystal structure, […] Å; type: binding; conditions: co-crystallised with 5 mM CoASH, pH 7.5; E2o acceptor site; pantothenate chain not traced
T1 construct: gene odhA; N-terminal truncation, residues 98-1221, E. coli BL21(DE3), His6-TEV tag cleaved; homohexamer

[2] = biological target: T2, OdhA (Corynebacterium glutamicum, UniProt Q8NRC3); assay: cryo-EM structure, […] Å; type: binding; conditions: E2o active site, out conformation; ThDP-Mg and acetyl-CoA also bound
T2 construct: full length residues 1-1221, E. coli BL21(DE3), N-terminal His6-TEV tag cleaved for cryo-EM (OdhA-His6 kept for SPR); homohexamer, ~800 kDa

[3] = biological target: T3, MsKGD-GarA complex (Mycolicibacterium smegmatis, UniProt A0R2B1); assay: crystal structure, […] Å; type: binding; conditions: Mg2+; 2 mM ThDP, 5 mM MgCl2, pH 8.0; GarA bound, resting conformation
T3 construct: gene kgd; with Glycogen accumulation regulator GarA

[4] = biological target: T2, OdhA; assay: cryo-EM structure, […] Å; type: binding; conditions: E2o active site; ThDP-Mg and acetyl-CoA also bound
[5] = biological target: T4, Corynebacterium glutamicum OdhA, full-length (residues 1-1221) (Corynebacterium glutamicum ATCC13032, UniProt Q8NRC3 1-1221); assay: cryo-EM structure; single particle, OdhA incubated with OdhI at molar ratio 1:10, then SEC (Superose 6 increase, 20 mM Hepes pH 7.5, 500 mM NaCl); D3 symmetry; 2.3 Å; conditions: both partners purified
T4 construct: OdhA (E2o succinyltransferase and E1o 2-oxoglutarate decarboxylase domains on one chain), C. glutamicum ATCC13032, Uniprot Q8NRC3, residues 1-1221; TEV site (ENLYFQG) between the vector's His6-tag and the N-terminus; In the maps the chain is traced from Pro102; also called corynebacterial OdhA; source: E. coli BL21(DE3), purified (Ni-NTA, TEV cleavage, SEC); not shown: His6, N-terminal, cleaved
T4 sequence (looked up): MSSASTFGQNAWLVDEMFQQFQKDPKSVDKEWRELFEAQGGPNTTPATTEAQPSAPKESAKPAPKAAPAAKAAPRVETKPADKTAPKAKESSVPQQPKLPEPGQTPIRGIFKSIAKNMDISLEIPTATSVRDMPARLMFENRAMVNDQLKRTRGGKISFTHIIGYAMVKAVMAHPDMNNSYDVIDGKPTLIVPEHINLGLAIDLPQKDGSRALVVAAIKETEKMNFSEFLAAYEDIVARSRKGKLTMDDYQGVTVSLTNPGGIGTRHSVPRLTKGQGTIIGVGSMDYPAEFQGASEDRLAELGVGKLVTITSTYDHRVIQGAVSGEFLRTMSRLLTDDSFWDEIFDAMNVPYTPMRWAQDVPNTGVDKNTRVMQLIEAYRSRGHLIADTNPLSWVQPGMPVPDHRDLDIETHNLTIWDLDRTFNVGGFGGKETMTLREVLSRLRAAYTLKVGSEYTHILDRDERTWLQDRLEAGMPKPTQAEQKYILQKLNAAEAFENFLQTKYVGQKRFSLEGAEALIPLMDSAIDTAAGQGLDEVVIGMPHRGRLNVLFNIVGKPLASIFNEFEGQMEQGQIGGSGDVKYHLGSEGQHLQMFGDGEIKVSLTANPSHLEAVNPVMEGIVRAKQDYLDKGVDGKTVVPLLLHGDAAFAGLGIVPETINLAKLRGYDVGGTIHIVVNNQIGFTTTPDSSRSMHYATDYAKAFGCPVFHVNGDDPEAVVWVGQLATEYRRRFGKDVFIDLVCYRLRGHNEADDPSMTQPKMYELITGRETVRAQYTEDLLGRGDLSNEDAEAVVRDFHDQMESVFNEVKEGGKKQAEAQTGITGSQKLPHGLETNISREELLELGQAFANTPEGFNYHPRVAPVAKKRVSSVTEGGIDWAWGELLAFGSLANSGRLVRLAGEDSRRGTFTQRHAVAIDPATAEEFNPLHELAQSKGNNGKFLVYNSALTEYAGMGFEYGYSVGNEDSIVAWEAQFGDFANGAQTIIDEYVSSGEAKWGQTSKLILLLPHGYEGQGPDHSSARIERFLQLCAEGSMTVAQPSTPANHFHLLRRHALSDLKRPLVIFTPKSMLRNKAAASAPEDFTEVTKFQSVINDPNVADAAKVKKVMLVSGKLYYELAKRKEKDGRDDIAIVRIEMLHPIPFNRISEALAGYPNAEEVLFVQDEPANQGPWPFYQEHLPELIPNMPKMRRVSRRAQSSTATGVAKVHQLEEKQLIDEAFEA

Molecule: CC(C)(COP(=O)(O)OP(=O)(O)OC[C@H]1O[C@@H](n2cnc3c(N)ncnc32)[C@H](O)[C@@H]1OP(=O)(O)O)[C@@H](O)C(=O)NCCC(=O)NCCS [CoASH]
crystal structure, 2.46 Å [1]: we could model CoASH, which was added to the cocrystallization mixture, as bound
cryo-EM structure, 2.2 Å [2]: the OdhA-CoASH complex shows the bound CoASH with the pantothenate chain not entering

Molecule: Cc1ncc(C[n+]2csc(CCOP(=O)(O)OP(=O)(O)O)c2C)c(N)n1 [ThDP]
crystal structure, 4.6 Å [3]: The E1o dimers containing the Mg-ThDP compose the blades

Molecule: CC(C)(COP(=O)(O)OP(=O)(O)OC[C@H]1O[C@@H](n2cnc3c(N)ncnc32)[C@H](O)[C@@H]1OP(=O)(O)O)[C@@H](O)C(=O)NCCC(=O)NCCSC(=O)CCC(=O)O [succinyl-CoA]
cryo-EM structure, 2.1 Å [4]: succinyl-CoA binds to the same domain with its 2-phosphoadenosine moiety superimposable

stoichiometry N [5]: 1
B1: Corynebacterium glutamicum OdhI (residues 1-143) (natural protein, Corynebacterium glutamicum ATCC13032, UniProt Q8NQJ3 1-143, looked up)
chain: MSDNNGTPEPQVETTSVFRADLLKEMESSTGTAPASTGAENLPAGSALLVVKRGPNAGARFLLDQPTTTAGRHPESDIFLDDVTVSRRHAEFRINEGEFEVVDVGSLNGTYVNREPRNAQVMQTGDEIQIGKFRLVFLAGPAE
notes: In the map only the FHA domain (Glu40-Ala142) is traceable; source: E. coli BL21(DE3), purified (Ni-NTA, TEV cleavage, SEC); not shown: His6, N-terminal, cleaved

From PMC10415282, “High resolution cryo-EM and crystallographic snapshots of the actinobacterial two-in-one 2-oxoglutarate dehydrogenase” (Nature Communications, 2023)
